Laboratory results taken from PMC12156033, “N-Alkylamino Stilbene Compounds as Amyloid β Inhibitors for Alzheimer’s Disease Research” (Molecules, 2025).
Entries after “also recorded” stand apart in the source; their conditions may differ.

Experiments:
[1] = target: T1, soluble Aβ42 aggregates (sAβ) (Homo sapiens, UniProt P05067); assay: Fluorescence spectra of compounds with soluble Aβ42 aggregates; format: binding; settings: excitation 380 nm; compound 5.0 µM in PBS with soluble Aβ aggregates
T1 construct: commercial Aβ42 peptide (AnaSpec or GL Biochem); purchased AnaSpec or GL Biochem
Method: (§1) All fluorescence measurements were performed using a SpectraMax M2e plate reader (Molecular Devices, San Jose, CA, USA). The fluorescence spectra of the compounds’ solution (100 μL PBS, 5.0 µM) were recorded with excitation at 380 nm and an emission wavelength from 400 to 680 nm. To PBS solutions (100 μL) of the compounds (5.0 µM), various Aβ42 species were added, with final concentrations of 5.0 µM and 25.0 µM, and their fluorescence spectra (λmax of emission) were determined as described above.
(§2) Aβ42 powder was prepared by dissolving commercial Aβ42 peptide (AnaSpec or GL Biochem) in ammonium hydroxide solution (1%, v/v). The solution was then aliquoted out and lyophilized overnight. The resulting aliquoted powder was stored at −80 °C. Aβ42 monomers were generated by dissolving Aβ42 powder in 1,1,1,3,3,3-hexafluoro-2-propanol (HFIP, 1 mM) and incubating for 1 h at room temperature. The solution was then evaporated overnight and dried by vacuum centrifuge to result in monomeric films. Aβ42 fibrils were generated by dissolving the monomeric Aβ42 films in DMSO, diluting into the appropriate buffer, and incubating for 24 h at 37 °C with continuous agitation (final DMSO concentration was <2%). For the preparation of Aβ42 oligomers, the peptides were suspended in PBS buffer and incubated overnight at 4 °C.

Aβ40 peptide = target: T2, Aβ40 peptide (Homo sapiens, UniProt P05067); assay: Aβ40 aggregation inhibition assay monitored by ThT fluorescence; format: biochemical; settings: 25 μM Aβ40, 5 μM ThT, 5 μM compound, 37 °C, 48 h
T2 construct: a peptide solution of 25 μM Aβ40 monomers (AnaSpec, Fremont, CA, USA) was prepared; purchased AnaSpec
Method: To investigate the effect of these compounds on amyloid aggregation, inhibition of aggregation assays were performed using the Aβ40 peptide. Aβ40 has been implicated in inducing oxidative stress and is physiologically the most common isoform of the amyloid peptide and is therefore a widely used isoform in amyloid assays. Aβ40 is also known to have slower aggregation kinetics than Aβ42, which is helpful for studying the inhibition of the early aggregation pathway. […] Thus, a lower RFU can be interpreted as inhibiting the fibrillization of amyloids. The rest of the compounds show appreciable inhibition of Aβ aggregation as found in the Supplementary Materials (Figure S2), except for L9, which contains the morpholine EDG and a methoxy group on the EAG (Figure 3). The addition of the more polar oxygen heteroatom may instead favor hydrogen bonding interactions within the aqueous media, thereby solvating the compound and reducing early interactions with soluble aggregates. Lastly, although L2 and L3 show similar amyloid inhibition, the L3 compound lacking the o-methoxy group begins inhibition at an earlier time. […] This procedure was established in a previous publication.

[2] = Log D measurement octanol/PBS; format: physicochemical; settings: octanol / PBS pH 7.4, 10 μM, triplicate, ± SD
Method: The determination of log D values for N-alkylamino multifunctional compounds was performed using a slightly modified reported procedure. The compounds (final concentration 10 μM) were added to the premix suspension containing 0.5 mL octanol and 0.5 mL octanol-saturated PBS buffer (pH = 7.4). The resulting mixture was stirred vigorously for 5 min and centrifuged at 2000 rpm for 5 min. The octanol layer was separated from the PBS layer, and the fluorescence spectrum was recorded. The remaining 0.5 mL PBS layer was partitioned with 0.5 mL PBS-saturated octanol, and the octanol layer was separated after 5 min of vigorous shaking and centrifuging. The fluorescence spectrum of the octanol layer was recorded. The log D value was calculated based on the fluorescence intensity ratio for the two octanol layers. Each experiment was completed in triplicate, and the error represents the standard deviation for the average log D values.

[3] = Fluorescence spectra of the compounds alone in PBS; format: physicochemical; settings: excitation 380 nm; compound 5.0 µM in PBS
Method: as §1

[4] = system: Cu-Aβ42 cytotoxicity on N2a cells; assay: N2a cell rescue from Cu-induced Aβ42 cytotoxicity (Alamar blue); format: cell-based, mouse; settings: [Aβ42] = [CuCl2] = 20 μM, compound 5 μM
Method: (§3) Mouse neuroblastoma Neuro2A (N2A) cell lines were purchased from the American Type Culture Collection (ATCC), Manassas, VA, USA. Cells were grown in DMEM/10% FBS, which is the regular growth media for N2A cells, in a humidified atmosphere with 5% CO2 at 37 °C. N2A cells were seeded in a clear 96-well plate (2.5 × 10^4/well) with DMEM/10% FBS. The media was changed to DMEM/N-2 media 24 h later. After 1 h, the treatment reagents were added. Owing to the poor solubility of compounds in the media, the final amount of DMSO used was 1% (v/v). After an additional incubation of 40 h, Alamar Blue solution was added to each well, and the cells were incubated for 90 min at 37 °C. Fluorescence intensity was measured at 590 nm (excitation wavelength = 560 nm).
The Alamar Blue assay was carried out as described, with the following treatment reagents: 20 μM Aβ42 species, 5 μM compounds, and 20 μM CuCl2.

[5] = target: T3, Aβ aggregates (sAβ and Aβ fibrils) (Homo sapiens, UniProt P05067); assay: Fluorescence turn-on assay with Aβ aggregates; format: binding; settings: compound 5 μM in PBS pH 7.4
T3 construct: commercial Aβ42 peptide (AnaSpec or GL Biochem); purchased AnaSpec or GL Biochem
Method: A fluorescence turn-on assay was performed to interrogate the effect of structural differences on the fluorescence enhancement with Aβ aggregates. […] Increases in fluorescence intensity with different aggregates would be ideal for tools used in amyloid-based assays. […] Without the ortho-methoxy group on the EAG, there is greater fluorescence enhancement for Aβ fibrils over sAβ for L3 and L4. […] The larger fluorescence enhancement observed for L6 than L5 indicates the dimethylamine EDG/methoxy EAG pair has a greater TICT. The piperidine-EDG-containing L7 has only slightly higher turn-on with sAβ, which may be attributed to the ortho-methoxy group on the EAG. […] In this case, it appears that the methoxy on the EAG diminishes the overall fluorescence of the compound since L8 has greater baseline fluorescence and turn-on than L7. This is also the case for the morpholine-EDG-containing L9 and L10. The lack of a methoxy group on the L10 EAG, in conjunction with the oxygen heteroatom from the morpholine EDG, electronically favors turn-on with Aβ fibrils to a slight extent. […] Changing the EDG to a methyl piperazine, L11, increases baseline fluorescence and turn-on compared to L9. […] L11 and L12, both containing an N-methyl piperazine EDG, show similar turn-on with sAβ and fibrils, and the o-methoxy EAG of L11 increases overall baseline fluorescence compared to L12. […] The spectra for the remaining compounds can be found in the Supplementary Information (Figure S1). None of the three compounds with the highest fluorescence contained an o-methoxy group on the EAG.
as §1, with “above. […]” for “above.”

Aβ42 fibrils = target: T4, Aβ42 fibrils (Homo sapiens, UniProt P05067); assay: Fluorescence spectra of compounds with Aβ42 fibrils; format: binding; settings: excitation 380 nm; compound 5.0 µM in PBS with Aβ fibrils
T4 construct: commercial Aβ42 peptide (AnaSpec or GL Biochem); purchased AnaSpec or GL Biochem
Method: as §1, §2

[6] = target: T5, amyloid plaques in 5xFAD mice brain sections (Homo sapiens, UniProt P05067); assay: Histological staining of 5xFAD mice brain sections, colocalization with HJ3.4 antibody; format: binding, mouse; settings: 11-month-old 5xFAD mice brain sections, compound 25 μM, HJ3.4 1 μg/mL
T5 construct: the amyloid beta (Aβ) peptide that makes up amyloid plaques; tissue Jackson Laboratories; host or cells: brain sections from 11-month-old 5xFAD transgenic mice (Tg6799 line)
Excerpt: To further investigate the affinity of the developed compounds toward various Aβ aggregates in situ, the intrinsic fluorescence properties of the compounds were employed for their ability to stain insoluble amyloid plaques. For these studies, brain sections from 11-month-old 5xFAD transgenic mice, which rapidly develop severe amyloid pathology, were co-stained with stilbenes and HJ3.4 antibody. HJ3.4 is an anti-amyloid antibody that binds to the N-terminal region of the Aβ peptide, thereby targeting both soluble and insoluble amyloid species. To evaluate the Aβ binding specificity of the compounds in vitro, brain sections from 11-month-old 5xFAD mice were washed with PBS (3 × 5 min) and blocked with bovine serum albumin (2% w/v BSA in PBS, pH 7.4, 10 min). Then, the sections were incubated with 25 μM of multifunctional compounds and sequentially stained with HJ3.4 antibody (Professor David Holtzman, 1 μg/mL) for 30 min. The brain sections were treated with 2% w/v BSA-PBS again for 4 min to remove any compounds or antibodies that were non-specifically binding to the tissue. Finally, the sections were washed with PBS (3 × 2 min) and DI water (2 min) and mounted with non-fluorescent mounting media (Vectashield). Colocalization analysis and determination of Pearson’s correlation coefficient were performed with the imaging software Fiji (ImageJ 1.52p). Mouse brains were harvested in compliance with the Institutional Animal Care and Use Committee of the University of Illinois at Urbana-Champaign (IACUC protocol #22094).

N2a cells = assay: Alamar blue cytotoxicity assay; format: cell-based, mouse; settings: among the cyclic amine EDG derivatives
Method: as §3
(§4) The Alamar Blue assay was carried out as described, with the following treatment reagents: 20 μM compounds, 10 μM compounds, 5 μM compounds, and 2 μM compounds.

soluble Aβ42 = soluble Aβ42 (Homo sapiens, UniProt P05067); assay: ThT control fluorescence turn-on assay with soluble Aβ42; format: binding; settings: [Aβ42] = 5 μM, em 485 nm, ex 435 nm
Method: Aβ42 and Aβ42 fibrils was used to control for soluble vs. insoluble amyloid.
text to prepare soluble and fibrillar Aβ42, the UV-vis absorbance was measured for the soluble
Aβ42 used in the control. In a cuvette, 100 μL o f [ A β42] = 20 μM. […]

[7] = Alamar blue cytotoxicity assay; format: cell-based, mouse; settings: mouse, Neuro2A (N2A) neuroblastoma cells, highest tested concentration (20 μM), 40 h, normalized to DMSO-only control, read-out: cell viability
Method: as §3, §4

T2 sequence (P05067 672-711 limits assumed): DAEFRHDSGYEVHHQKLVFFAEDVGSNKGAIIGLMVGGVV
T4 sequence (P05067 672-713 limits assumed): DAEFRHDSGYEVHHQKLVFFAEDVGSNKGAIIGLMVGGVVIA
T1 sequence (P05067 672-713 limits assumed): as above
T5 sequence (P05067 672-713 limits assumed): as above
T3 sequence (P05067 672-713 limits assumed): as above
Sequence of soluble Aβ42 (P05067 672-713 limits assumed): as above

Compound+sAβ λem (λmax of emission) [1] | inhibition of Aβ40 aggregation (ThT RFU) (Aβ40 peptide) | logD [2] | Compound λem (λmax of emission) [3] | Compound+Fibrils λem (λmax of emission) (Aβ42 fibrils) | Pearson's coefficient (R) of colocalization with AF594-HJ3.4 [6] | fluorescence turn-on (soluble Aβ42) | SMILES | effect on Cu-stabilized Aβ42 / Aβ42-induced toxicity [4] | fluorescence enhancement / turn-on with Aβ aggregates [5] | cell viability (ranking in words) (N2a cells) | viability at 40 h, 20 µM [7]
430 nm | – | 0.81 ± 0.01 | 450 nm | 435 nm | 0.65 | – | CN1CCN(C)CCN(Cc2cc(/C=C/c3ccc(N4CCN(C)CC4)cc3)ccc2O)CC1 [Compound L12, (E)-2-((4,7-dimethyl-1,4,7-triazonan-1-yl)methyl)-4-(4-(4-methylpiperazin-1-yl)styryl)phenol] | rescue cells from Cu-Aβ42 cytotoxicity | – | best cell viability | –
– | – | – | – | – | – | negligible turn-on | Cc1ccc2c(c1)sc(-c1ccc(N(C)C)cc1)[n+]2C [ThT, Thioflavin T] | – | – | – | –
430 nm | best inhibition | 1.29 ± 0.01 | 460 nm | 430 nm | 0.68 | – | CN1CCN(C)CCN(Cc2cc(/C=C/c3ccc(N4CCCCC4)cc3)ccc2O)CC1 [Compound L8, (E)-2-((4,7-dimethyl-1,4,7-triazonan-1-yl)methyl)-4-(4-(piperidin-1-yl)styryl)phenol] | toxicity was exacerbated | highest fluorescence turn-on; also recorded: greatest overall fluorescence enhancements | – | –
435 nm | – | 1.03 ± 0.01 | 455 nm | 435 nm | 0.74 | – | CN1CCN(C)CCN(Cc2cc(/C=C/c3ccc(N4CCOCC4)cc3)ccc2O)CC1 [Compound L10, (E)-2-((4,7-dimethyl-1,4,7-triazonan-1-yl)methyl)-4-(4-morpholinostyryl)phenol] | rescue cells from Cu-Aβ42 cytotoxicity | highest fluorescence intensity; also recorded: greatest overall fluorescence enhancements | – | –
455 nm | least inhibition | 0.93 ± 0.02 | 455 nm | 450 nm | 0.71 | – | COc1cc(/C=C/c2ccc(N3CCOCC3)cc2)cc(CN2CCN(C)CCN(C)CC2)c1O [Compound L9, (E)-2-((4,7-dimethyl-1,4,7-triazonan-1-yl)methyl)-6-methoxy-4-(4-morpholinostyryl)phenol] | inhibit both Cu-stabilized Aβ42- and Aβ42-induced toxicity; also recorded: rescue cells from Cu-Aβ42 cytotoxicity | – | best cell viability | –
440 nm | – | 1.48 ± 0.02 | 460 nm | 440 nm | 0.54 | – | CNc1ccc(/C=C/c2cc(CN3CCN(C)CCN(C)CC3)c(O)c(OC)c2)cc1 [Compound L2, (E)-2-((4,7-dimethyl-1,4,7-triazonan-1-yl)methyl)-6-methoxy-4-(4-(methylamino)styryl)phenol] | – | – | – | 88%

SMILES | Compound+sAβ λem (λmax of emission) [1] | inhibition of Aβ40 aggregation (ThT RFU) (Aβ40 peptide) | logD [2] | Compound λem (λmax of emission) [3] | Compound+Fibrils λem (λmax of emission) (Aβ42 fibrils) | Pearson's coefficient (R) of colocalization with AF594-HJ3.4 [6] | fluorescence turn-on (soluble Aβ42) | effect on Cu-stabilized Aβ42 / Aβ42-induced toxicity [4] | fluorescence enhancement / turn-on with Aβ aggregates [5] | cell viability (ranking in words) (N2a cells) | viability at 40 h, 20 µM [7]
CN1CCN(C)CCN(Cc2cc(/C=C/c3ccc(N(C)C)cc3)ccc2O)CC1 [Compound L4, (E)-2-((4,7-dimethyl-1,4,7-triazonan-1-yl)methyl)-4-(4-(dimethylamino)styryl)phenol] | 435 nm | greatest inhibition; also recorded: best inhibition | 1.44 ± 0.01 | 455 nm | 435 nm | 0.60 | – | toxicity was exacerbated | greatest overall fluorescence enhancements | – | –
